Literature values in patent US6586417B1, “Ester and ether derivatives of 4-hydroxy 4-androstene-3,17-dione and a method for the regulation of athletic function in humans” (NutriSport Pharmacal, Inc., priority 2002, dated 2003).

Assays:
rats = conditions: for weight of the genital organs (testis, ventral prostrate, seminal vesicle) / luteinizing hormone (LH) levels: rats, subcutaneous treatment; for luteinizing hormone (LH) levels: 4-acetoxy-4-androstenedione given against effects of 19-hydroxytestosterone
rat follicles = rat follicles in vitro
[1] = test system: transformation of testosterone to dihydrotestosterone in the ventral prostrate; conditions: ventral prostrate of the adult male rat
aromatase enzyme = target: T1, aromatase enzyme (Homo sapiens, UniProt P11511); conditions: at 24 and 48 weeks
T1 construct: host or cells: endogenous enzyme in treated males (in vivo)
T1 sequence (P11511 1-503): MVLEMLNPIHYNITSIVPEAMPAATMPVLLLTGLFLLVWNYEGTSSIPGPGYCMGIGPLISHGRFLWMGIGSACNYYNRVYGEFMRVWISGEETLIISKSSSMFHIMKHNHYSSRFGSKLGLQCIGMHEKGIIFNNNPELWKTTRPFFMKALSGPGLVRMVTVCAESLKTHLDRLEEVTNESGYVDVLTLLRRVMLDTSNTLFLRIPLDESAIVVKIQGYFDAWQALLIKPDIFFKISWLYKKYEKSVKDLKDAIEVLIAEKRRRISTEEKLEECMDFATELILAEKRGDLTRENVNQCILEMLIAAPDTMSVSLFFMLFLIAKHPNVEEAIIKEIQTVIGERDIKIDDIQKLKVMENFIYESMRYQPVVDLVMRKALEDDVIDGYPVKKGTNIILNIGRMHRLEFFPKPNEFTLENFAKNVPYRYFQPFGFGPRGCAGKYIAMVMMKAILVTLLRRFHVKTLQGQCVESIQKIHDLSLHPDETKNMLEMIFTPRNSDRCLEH

C[C@]12CC[C@H]3[C@@H](CCC4=CC(=O)CC[C@@]43CO)[C@@H]1CC[C@@H]2O [19-hydroxytestosterone, reference compound]
weight of the genital organs (testis, ventral prostrate, seminal vesicle) (rats): decrease in weight of the testis, ventral prostrate, seminal vesicle | luteinizing hormone (LH) levels (rats): decrease

CC(=O)OC1=C2CC[C@@H]3[C@H](CC[C@]4(C)C(=O)CC[C@@H]34)[C@@]2(C)CCC1=O [4-acetoxy-4-androstenedione]
meiotic activity (rats; rats treated with 19-hydroxytestosterone): restored meiotic activity | weight of the genital organs (testis, ventral prostrate, seminal vesicle) (rats): increased the weight of the genital organs | luteinizing hormone (LH) levels (rats): increased luteinizing hormone (LH) levels | stimulation of testosterone, in combination with luteinizing hormone (LH) (rat follicles; first eight hours, plus LH): greatly stimulate testosterone | stimulation of testosterone, compound alone (rat follicles; first eight hours, without LH): directly stimulate testosterone alone | stimulation of testosterone relative to luteinizing hormone (LH) (rat follicles; next sixteen hours, compound alone): three times as much as luteinizing hormone (LH) | inhibition of the transformation of testosterone to dihydrotestosterone [1]: able to inhibit

CC1=CC(=O)C=C2CC[C@@H]3[C@H](CC[C@]4(C)C(=O)CC[C@@H]34)[C@@]12C [atamestane]
restoration of androgens over estrogens (aromatase enzyme): restoration of androgens over estrogens

C[C@]12CCC(=O)C(O)=C1CC[C@@H]1[C@@H]2CC[C@]2(C)C(=O)CC[C@@H]12 [4-hydroxy 4-androstenedione, 4-hydroxy 4-androstene-3, 17-dione]
inhibition of the transformation of testosterone to dihydrotestosterone [1]: able to inhibit | escape from estrogen suppression (estrogen; 500 mg p.o. daily versus single i.m. injection of 125 mg): more rapid | oral absorption (estrogen; p.o.): adequate oral absorption
